Test results as given in US20160228484A1, “TOMATO POWDER-BASED COMPOSITION” (MEDIAPHARMA S.R.L., priority 2013, published 2016).

What was measured:
Type in all cases: in vivo, mouse
[1] = test system: VEGF; assay: VEGF serum levels during different diets in TRAMP mice; settings: FIG. 4; diet fortified 10%; two-ways ANOVA; RED007 P<0.0001; Lycopene P=0.204
Description: FIG. 4: VEGF serum levels during different diets. Values represent mean ±SD(n8mice). […] RED007 may be also designated “Lycoprozen”. The two terms are interchangeable herein.
(§1) FIG. 6: VEGF serum levels during different diets. Values represent mean±SD(n8mice). The control diet was fortified with a 10% mixture of A and B components. The two components were mixed according to different Acomponent/Bcomponent ratios (w/w), i.e. 99.5:0.5, 98.0:2.0 (RED007 diet), and 96.0:4.0, respectively.

[2] = test system: TRAMP mice; assay: Kaplan-Meier survival of TRAMP mice fed fortified diets; settings: Lycopene treated, not significantly different from Control Diet (11%), P=0.384, unpublished observations
Description: In man, early prostate tumorigenesis appears to be associated with a dysplasia that starts with proliferative inflammatory atrophy which may progress to low-grade Prostatic Intraepithelial Neoplasia (PIN), to high-grade PIN, to primary cancer, to metastatic cancer, and to hormone refractory cancer after hormonal treatment (23,24). Transgenic adenocarcinoma of the mouse prostate (TRAMP) is a model in which the progression of prostate cancer mirrors the stages of the human form, from PIN to undifferentiated, androgen independent tumor (25). Expression od the SV40 early genes driven by the prostate-specific promoter probasin leads to prostate cell transformation and all TRAMP mice develop prostate cancer spontaneously. This model, therefore, is regularly used to assess chemoprevention of prostate cancer (22).
In a recent paper (36), we reported that a tomato diet (Control Diet enriched with 10% of a “tomato powder”, whose composition is reported in Table 1), increased TRAMP mice survival.

[3] = test system: IL6; assay: IL6 serum levels during different diets in TRAMP mice; settings: FIG. 5; diet fortified 10%; two-ways ANOVA; RED007 P<0.0001; Lycopene P=0.314
Description: FIG. 5: IL6 serum levels during different diets. Values represent mean±SD(n8mice).
as §1, with “7: IL6” for “6: VEGF”, “mean ±SD(n8mice).” for “mean±SD(n8mice).”

CC(C)=CCC/C(C)=C/C=C/C(C)=C/C=C/C(C)=C/C=C/C=C(C)/C=C/C=C(C)/C=C/C=C(\C)CCC=C(C)C [Lycopene, lycopene]
VEGF serum levels compared to Control Diet [1]: did not significantly modify | survival proportion [2]: 17% | IL6 serum levels compared to Control Diet [3]: did not significantly modify
